A short description of the series: Gelling ability of basic amino acid derivatives (test tube tilting, visual appearance). The class given is physicochemical. Details: key to gel appearance: GT: transparent gel; GTL: translucent gel; GO: opaque gel. As to conditions: heated to 100° C., stood at 25° C. for 2 hr. As to the method: The gelling ability of various basic amino acid derivatives prepared in Production Examples 1-4, 7, 9 and 10 was confirmed. Test tube equipped with a cover was filled with water, saline, phosphate buffered saline (hereinafter indicated as PBS), and aqueous NaCl solution or aqueous KCl solution, and a basic amino acid derivative was added at various concentrations. The mixture was heated to 100° C. to achieve homogeneous dissolution, and stood at 25° C. for 2 hr. After allowing to cool, the test tube was tilted, and the absence of fluidity was judged as gellation, and the appearance was visually observed.
Abbreviations mean the following. • GT: transparent gel • GTL: translucent gel • GO: opaque gel

The structures appear in SMILES notation.

Consider `CCCCCCCCCCCC(=O)NCCCC[C@H](NC(=O)CC(CCCCCCCCCC)C(=O)[O-])C(=O)OCC.[Na+]` (stereo partly drawn) [Production Example 1, N^ε-lauroyl-N^α-(3-carboxytridecanoyl)-L-lysine ethyl ester sodium salt], for which the gel appearance result is “GTL” (0.1M aqueous KCl solution), “GTL” (0.1M aqueous NaCl solution), “GTL” (saline) and “GTL” (water). Further, the minimum gelling concentration is 15 g/L (0.1M aqueous KCl solution), 10 g/L (0.1M aqueous NaCl solution), 20 g/L (saline) and 25 g/L (water).
As to `CCCCCCCCCCCC(=O)NCCCC[C@H](NC(=O)CCCCCCC(=O)[O-])C(=O)O.[Na+]` [Production Example 7, N^ε-lauroyl-N^α-(7-carboxyheptanoyl)-L-lysine monosodium salt], the gel appearance result by setting is: (0.1M aqueous KCl solution) “GT”; (0.1M aqueous NaCl solution) “GTL”; (1.0M aqueous KCl solution) “GT”; (1.0M aqueous NaCl solution) “GT”; (PBS) “GT”; (saline) “GT”. In addition, the minimum gelling concentration is, setting by setting: (0.1M aqueous KCl solution) 30 g/L; (0.1M aqueous NaCl solution) 30 g/L; (1.0M aqueous KCl solution) 4 g/L; (1.0M aqueous NaCl solution) 4 g/L; (PBS) 30 g/L; (saline) 30 g/L.
On to `CCCCCCCCCCCC(=O)NCCCC[C@H](NC(=O)CC(CCCCCCCCCC)C(=O)[O-])C(=O)OCC.[K+]` (stereo partly drawn) [Production Example 2, N^ε-lauroyl-N^α-(3-carboxytridecanoyl)-L-lysine ethyl ester potassium salt], for which the gel appearance entry by setting is: (0.1M aqueous KCl solution) “GTL”; (0.1M aqueous NaCl solution) “GTL”; (saline) “GTL”; (water) “GTL”. Besides, the minimum gelling concentration is on record as 10 g/L (0.1M aqueous KCl solution), 10 g/L (0.1M aqueous NaCl solution), 20 g/L (saline) and 20 g/L (water).
As for `CCCCCCCCCCCC(=O)NCCCC[C@H](NC(=O)CCCCCCCCC(=O)[O-])C(=O)O.[K+]` [Production Example 10, N^ε-lauroyl-N^α-(9-carboxynonanoyl)-L-lysine monopotassium salt], the gel appearance result by setting is: (0.1M aqueous KCl solution) “GT”; (0.1M aqueous NaCl solution) “GT”; (1.0M aqueous KCl solution) “GT”; (1.0M aqueous NaCl solution) “GT”; (PBS) “GT”; (saline) “GT”. Moreover, the gel appearance entry (water) is recorded as “GTL”. In addition, the minimum gelling concentration (0.1M aqueous KCl solution) came to 4 g/L; the minimum gelling concentration (0.1M aqueous NaCl solution) amounted to 10 g/L; the minimum gelling concentration (1.0M aqueous KCl solution) was determined as 4 g/L; the minimum gelling concentration (1.0M aqueous NaCl solution) is 4 g/L; the minimum gelling concentration (PBS) was 4 g/L; the minimum gelling concentration (saline) was determined as 4 g/L. The minimum gelling concentration (water) came to 30 g/L.
As for `CCCCCCCCCCCC(=O)NCCCC[C@H](NC(=O)CCCCCCCCC(=O)[O-])C(=O)O.[Na+]` [Production Example 9, N^ε-lauroyl-N^α-(9-carboxynonanoyl)-L-lysine monosodium salt], the gel appearance entry runs as follows: (0.1M aqueous KCl solution) “GT”; (0.1M aqueous NaCl solution) “GT”; (1.0M aqueous KCl solution) “GT”; (1.0M aqueous NaCl solution) “GT”; (PBS) “GT”; (saline) “GT”. In addition, the gel appearance result (water) is given as “GTL”. For the same molecule, the minimum gelling concentration is on record as 4 g/L (0.1M aqueous KCl solution); 4 g/L (0.1M aqueous NaCl solution); 4 g/L (1.0M aqueous KCl solution); 4 g/L (1.0M aqueous NaCl solution); 4 g/L (PBS); 4 g/L (saline). For the same molecule, the minimum gelling concentration (water) was 30 g/L.
As for `CCCCCCCCCCCC(=O)NCCCC[C@H](NC(=O)CC(CCCCCCCCCC)C(=O)[O-])C(=O)O.[Na+]` (stereo partly drawn) [Production Example 3, N^ε-lauroyl-N^α-(3-carboxytridecanoyl)-L-lysine monosodium salt], the gel appearance entry (0.1M aqueous KCl solution) was “GTL”; the gel appearance result (0.1M aqueous NaCl solution) is “GTL”; the gel appearance result (1.0M aqueous KCl solution) is listed as “GO”; the gel appearance entry (PBS) is listed as “GO”; the gel appearance entry (saline) is “GTL”; the gel appearance result (water) is “GTL”. Further, the minimum gelling concentration was found to be 20 g/L (0.1M aqueous KCl solution); 20 g/L (0.1M aqueous NaCl solution); 20 g/L (1.0M aqueous KCl solution); 60 g/L (PBS); 50 g/L (saline); 50 g/L (water).
In the case of `CCCCCCCCCCCC(=O)NCCCC[C@H](NC(=O)CC(CCCCCCCCCC)C(=O)[O-])C(=O)O.[K+]` (stereo partly drawn) [Production Example 4, N^ε-lauroyl-N^α-(3-carboxytridecanoyl)-L-lysine monopotassium salt], the gel appearance result is “GTL” (0.1M aqueous KCl solution); “GTL” (0.1M aqueous NaCl solution); “GO” (1.0M aqueous KCl solution); “GO” (PBS); “GTL” (saline); “GTL” (water). Besides, the minimum gelling concentration reads like this: (0.1M aqueous KCl solution) 40 g/L; (0.1M aqueous NaCl solution) 20 g/L; (1.0M aqueous KCl solution) 20 g/L; (PBS) 60 g/L; (saline) 50 g/L; (water) 60 g/L.
